According to ChEMBL document CHEMBL4507269, “Data for DCP probe BAY-386” (2021):

Tests used:
[1] = target: Serine/threonine-protein kinase SIK1 (Homo sapiens) (UniProt P57059); conditions: Compound concentration 1000.0 nM
[2] = target: Cyclin-dependent kinase 13 (Homo sapiens) (UniProt Q14004); conditions: Compound concentration 1000.0 nM
[3] = target: Activin receptor type-1 (Homo sapiens) (UniProt Q04771); conditions: Compound concentration 1000.0 nM
[4] = target: Protein-tyrosine kinase 2-beta (Homo sapiens) (UniProt Q14289); conditions: Compound concentration 1000.0 nM
[5] = target: Inhibitor of nuclear factor kappa-B kinase subunit alpha (Homo sapiens) (UniProt O15111); conditions: Compound concentration 1000.0 nM
[6] = tested on: Mast/stem cell growth factor receptor Kit (Homo sapiens), P10721 [V559D,T670I]; conditions: Compound concentration 1000.0 nM
[7] = target: Sodium-dependent dopamine transporter (Homo sapiens) (UniProt Q01959); conditions: Compound concentration 10.0 uM
[8] = target: T1, Alpha-2A adrenergic receptor (Homo sapiens) (UniProt P08913); test: alpha2A (h) Eurofins-Cerep Cellular and Nuclear Receptor Functional Assays; conditions: Compound concentration 10.0 uM
T1 sequence (whole entry): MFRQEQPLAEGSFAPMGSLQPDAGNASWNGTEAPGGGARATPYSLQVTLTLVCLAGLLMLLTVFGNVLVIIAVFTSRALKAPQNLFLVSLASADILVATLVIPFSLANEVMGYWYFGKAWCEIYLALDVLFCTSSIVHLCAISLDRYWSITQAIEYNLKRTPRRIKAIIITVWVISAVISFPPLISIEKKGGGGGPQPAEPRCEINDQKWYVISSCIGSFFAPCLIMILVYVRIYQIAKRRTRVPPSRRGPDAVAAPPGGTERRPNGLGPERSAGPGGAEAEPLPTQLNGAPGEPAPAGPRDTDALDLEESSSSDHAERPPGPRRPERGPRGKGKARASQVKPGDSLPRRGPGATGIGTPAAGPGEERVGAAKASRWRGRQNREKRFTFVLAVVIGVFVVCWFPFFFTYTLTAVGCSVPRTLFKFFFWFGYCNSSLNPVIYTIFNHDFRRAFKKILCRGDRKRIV

[9] = target: Phosphorylase b kinase regulatory subunit alpha, liver isoform (Homo sapiens) (UniProt P46019); conditions: Compound concentration 1000.0 nM
[10] = target: Bone morphogenetic protein receptor type-2 (Homo sapiens) (UniProt Q13873); conditions: Compound concentration 1000.0 nM
[11] = target: Tyrosine-protein kinase SYK (Homo sapiens) (UniProt P43405); conditions: Compound concentration 1000.0 nM
[12] = target: 5-hydroxytryptamine receptor 2C (Homo sapiens) (UniProt P28335); conditions: Compound concentration 10.0 uM
[13] = target: Muscarinic acetylcholine receptor M3 (Homo sapiens) (UniProt P20309); conditions: Compound concentration 10.0 uM
[14] = target: Cyclin-dependent kinase-like 2 (Homo sapiens) (UniProt Q92772); conditions: Compound concentration 1000.0 nM
[15] = target: Insulin receptor (Homo sapiens) (UniProt P06213); conditions: Compound concentration 1000.0 nM
[16] = target: Serine/threonine-protein kinase Sgk1 (Homo sapiens) (UniProt O00141); conditions: Compound concentration 1000.0 nM
[17] = target: 5-hydroxytryptamine receptor 1D (Homo sapiens) (UniProt P28221); conditions: Compound concentration 10.0 uM
[18] = target: Tyrosine-protein kinase CSK (Homo sapiens) (UniProt P41240); conditions: Compound concentration 1000.0 nM
[19] = target: Glutamate NMDA receptor (Rattus norvegicus) (UniProt P35439+Q00959+Q00960+Q00961+Q62645+Q8VHN2+Q9R1M7); conditions: Compound concentration 10.0 uM
[20] = target: Serine/threonine-protein kinase PAK 1 (Homo sapiens) (UniProt Q13153); conditions: Compound concentration 1000.0 nM
[21] = target: Serine/threonine-protein kinase Nek7 (Homo sapiens) (UniProt Q8TDX7); conditions: Compound concentration 1000.0 nM
[22] = target: Ephrin type-A receptor 8 (Homo sapiens) (UniProt P29322); conditions: Compound concentration 1000.0 nM
[23] = target: 5'-AMP-activated protein kinase catalytic subunit alpha-1 (Homo sapiens) (UniProt Q13131); conditions: Compound concentration 1000.0 nM
[24] = target: Phosphatidylinositol 5-phosphate 4-kinase type-2 beta (Homo sapiens) (UniProt P78356); conditions: Compound concentration 1000.0 nM
[25] = target: Wee1-like protein kinase (Homo sapiens) (UniProt P30291); conditions: Compound concentration 1000.0 nM
[26] = target: Macrophage-stimulating protein receptor (Homo sapiens) (UniProt Q04912); conditions: Compound concentration 1000.0 nM
[27] = target: Calcium/calmodulin-dependent protein kinase kinase 2 (Homo sapiens) (UniProt Q96RR4); conditions: Compound concentration 1000.0 nM
[28] = target: Hepatocyte growth factor receptor (Homo sapiens) (UniProt P08581); conditions: Compound concentration 1000.0 nM
[29] = target: Proto-oncogene tyrosine-protein kinase ROS (Homo sapiens) (UniProt P08922); conditions: Compound concentration 1000.0 nM
[30] = tested on: Receptor-type tyrosine-protein kinase FLT3 (Homo sapiens), P36888 [K663Q]; conditions: Compound concentration 1000.0 nM
[31] = target: GABA-A receptor; anion channel (Rattus norvegicus) (UniProt O09028+P15431+P18506+P18508+P19969+P20236+P23574+P23576+P28471+P28473+P30191+P62813+P63079+P63138+Q91ZM7+Q9ES14); conditions: Compound concentration 10.0 uM
[32] = target: Cyclin-dependent kinase 8 (Homo sapiens) (UniProt P49336); conditions: Compound concentration 1000.0 nM
[33] = target: Histamine H3 receptor (Homo sapiens) (UniProt Q9Y5N1); test: Histamine H3 Eurofins-Panlabs radioligand binding assay; conditions: Compound concentration 10.0 uM
[34] = target: Cyclin-dependent kinase 2 homolog (Plasmodium falciparum (isolate 3D7)) (UniProt P61075); conditions: Compound concentration 1000.0 nM
[35] = target: Mitogen-activated protein kinase 14 (Homo sapiens) (UniProt Q16539); conditions: Compound concentration 1000.0 nM
[36] = target: MAP/microtubule affinity-regulating kinase 4 (Homo sapiens) (UniProt Q96L34); conditions: Compound concentration 1000.0 nM
[37] = tested on: Receptor-type tyrosine-protein kinase FLT3 (Homo sapiens), P36888 [UNDEFINED MUTATION]; conditions: Compound concentration 1000.0 nM

Chain of Inhibitor of nuclear factor kappa-B kinase subunit alpha (Homo sapiens) (O15111 whole entry): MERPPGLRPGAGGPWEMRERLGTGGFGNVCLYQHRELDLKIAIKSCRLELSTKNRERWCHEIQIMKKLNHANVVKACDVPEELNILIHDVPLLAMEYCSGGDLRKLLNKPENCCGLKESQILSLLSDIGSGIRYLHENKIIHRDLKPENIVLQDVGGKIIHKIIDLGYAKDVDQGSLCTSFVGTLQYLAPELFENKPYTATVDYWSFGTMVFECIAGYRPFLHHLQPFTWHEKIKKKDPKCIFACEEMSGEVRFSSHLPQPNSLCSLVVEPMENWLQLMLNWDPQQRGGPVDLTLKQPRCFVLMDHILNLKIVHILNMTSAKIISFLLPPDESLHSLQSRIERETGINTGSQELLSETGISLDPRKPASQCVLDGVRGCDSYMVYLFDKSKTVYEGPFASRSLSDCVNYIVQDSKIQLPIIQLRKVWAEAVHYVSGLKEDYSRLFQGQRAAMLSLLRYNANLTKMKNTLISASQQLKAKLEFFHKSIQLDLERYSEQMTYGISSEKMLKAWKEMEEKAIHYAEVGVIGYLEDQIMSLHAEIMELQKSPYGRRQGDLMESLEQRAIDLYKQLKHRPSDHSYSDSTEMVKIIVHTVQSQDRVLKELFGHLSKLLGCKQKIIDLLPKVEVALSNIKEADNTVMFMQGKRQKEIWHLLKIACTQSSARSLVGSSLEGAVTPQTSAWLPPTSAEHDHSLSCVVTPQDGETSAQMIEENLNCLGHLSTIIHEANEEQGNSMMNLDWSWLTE
Chain of Protein-tyrosine kinase 2-beta (Homo sapiens) (Q14289 whole entry, looked up): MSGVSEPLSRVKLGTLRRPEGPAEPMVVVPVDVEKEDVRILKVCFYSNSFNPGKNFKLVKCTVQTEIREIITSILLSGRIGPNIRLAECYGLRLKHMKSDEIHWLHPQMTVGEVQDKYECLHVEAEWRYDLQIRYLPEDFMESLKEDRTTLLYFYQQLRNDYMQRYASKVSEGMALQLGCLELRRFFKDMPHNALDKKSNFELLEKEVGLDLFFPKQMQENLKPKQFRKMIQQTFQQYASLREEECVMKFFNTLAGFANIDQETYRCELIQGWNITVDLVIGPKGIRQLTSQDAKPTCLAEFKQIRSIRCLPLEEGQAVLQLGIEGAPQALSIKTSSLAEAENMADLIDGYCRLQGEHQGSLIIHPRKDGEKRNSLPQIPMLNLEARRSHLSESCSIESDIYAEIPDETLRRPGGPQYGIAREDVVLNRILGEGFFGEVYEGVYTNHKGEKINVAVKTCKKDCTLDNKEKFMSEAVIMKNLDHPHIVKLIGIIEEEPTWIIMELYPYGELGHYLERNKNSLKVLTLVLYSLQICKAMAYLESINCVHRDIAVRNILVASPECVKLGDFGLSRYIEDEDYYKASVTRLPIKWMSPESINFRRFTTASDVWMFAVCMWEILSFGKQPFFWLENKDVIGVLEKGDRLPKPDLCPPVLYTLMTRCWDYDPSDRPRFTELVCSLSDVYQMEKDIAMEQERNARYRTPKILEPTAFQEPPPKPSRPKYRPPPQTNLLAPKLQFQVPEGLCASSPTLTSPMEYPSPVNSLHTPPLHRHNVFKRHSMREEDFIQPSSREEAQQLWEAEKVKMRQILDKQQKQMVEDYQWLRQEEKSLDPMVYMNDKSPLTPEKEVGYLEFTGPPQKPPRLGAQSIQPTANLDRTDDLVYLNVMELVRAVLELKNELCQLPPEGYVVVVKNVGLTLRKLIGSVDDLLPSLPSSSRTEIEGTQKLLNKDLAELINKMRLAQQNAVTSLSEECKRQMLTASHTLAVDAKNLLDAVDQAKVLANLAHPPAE
Chain of Mast/stem cell growth factor receptor Kit (Homo sapiens), P10721 [V559D,T670I] (P10721 whole entry V559D/T670I): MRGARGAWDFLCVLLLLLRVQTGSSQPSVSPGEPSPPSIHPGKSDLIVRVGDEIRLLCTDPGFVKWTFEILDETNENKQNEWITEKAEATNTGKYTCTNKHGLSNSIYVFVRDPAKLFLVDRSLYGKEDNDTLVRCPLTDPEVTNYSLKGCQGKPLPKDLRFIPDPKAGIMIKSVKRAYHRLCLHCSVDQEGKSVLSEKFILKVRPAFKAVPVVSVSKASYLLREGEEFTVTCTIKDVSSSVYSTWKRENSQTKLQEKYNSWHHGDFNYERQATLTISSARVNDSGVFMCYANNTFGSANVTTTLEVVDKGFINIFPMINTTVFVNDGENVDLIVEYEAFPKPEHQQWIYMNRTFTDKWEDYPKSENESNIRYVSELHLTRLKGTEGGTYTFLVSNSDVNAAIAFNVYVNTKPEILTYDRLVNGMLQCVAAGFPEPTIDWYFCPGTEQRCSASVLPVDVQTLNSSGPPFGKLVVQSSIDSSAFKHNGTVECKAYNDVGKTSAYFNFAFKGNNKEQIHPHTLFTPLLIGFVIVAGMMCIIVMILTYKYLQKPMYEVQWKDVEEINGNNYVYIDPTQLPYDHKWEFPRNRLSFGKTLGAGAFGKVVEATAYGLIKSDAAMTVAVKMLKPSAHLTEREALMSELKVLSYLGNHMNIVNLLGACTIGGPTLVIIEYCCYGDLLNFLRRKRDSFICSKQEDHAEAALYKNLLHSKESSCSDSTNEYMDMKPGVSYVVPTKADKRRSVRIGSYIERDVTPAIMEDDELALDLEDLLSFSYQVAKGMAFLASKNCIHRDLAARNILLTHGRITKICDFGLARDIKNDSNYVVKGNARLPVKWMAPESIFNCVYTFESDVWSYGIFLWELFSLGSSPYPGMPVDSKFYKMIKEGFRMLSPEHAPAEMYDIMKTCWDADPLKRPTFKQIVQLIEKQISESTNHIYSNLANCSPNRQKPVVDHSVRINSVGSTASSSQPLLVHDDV
Chain of Wee1-like protein kinase (Homo sapiens) (P30291 whole entry, looked up): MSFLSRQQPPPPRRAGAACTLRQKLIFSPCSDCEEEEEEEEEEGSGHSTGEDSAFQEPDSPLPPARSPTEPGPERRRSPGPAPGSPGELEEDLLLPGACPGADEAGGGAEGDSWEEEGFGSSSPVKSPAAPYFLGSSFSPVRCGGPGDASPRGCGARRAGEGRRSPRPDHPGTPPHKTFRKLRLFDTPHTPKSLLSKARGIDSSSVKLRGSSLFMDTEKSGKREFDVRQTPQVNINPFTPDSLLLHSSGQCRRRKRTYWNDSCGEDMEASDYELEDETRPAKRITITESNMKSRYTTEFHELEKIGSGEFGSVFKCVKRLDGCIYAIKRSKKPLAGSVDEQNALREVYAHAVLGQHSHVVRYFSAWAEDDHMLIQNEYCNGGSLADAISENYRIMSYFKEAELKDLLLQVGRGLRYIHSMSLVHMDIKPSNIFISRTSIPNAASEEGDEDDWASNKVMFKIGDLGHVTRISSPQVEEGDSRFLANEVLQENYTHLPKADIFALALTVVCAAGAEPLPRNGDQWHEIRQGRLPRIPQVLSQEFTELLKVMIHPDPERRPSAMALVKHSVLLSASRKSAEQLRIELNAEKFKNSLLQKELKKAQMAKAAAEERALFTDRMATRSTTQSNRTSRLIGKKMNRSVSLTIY
Chain of Serine/threonine-protein kinase Sgk1 (Homo sapiens) (O00141 whole entry): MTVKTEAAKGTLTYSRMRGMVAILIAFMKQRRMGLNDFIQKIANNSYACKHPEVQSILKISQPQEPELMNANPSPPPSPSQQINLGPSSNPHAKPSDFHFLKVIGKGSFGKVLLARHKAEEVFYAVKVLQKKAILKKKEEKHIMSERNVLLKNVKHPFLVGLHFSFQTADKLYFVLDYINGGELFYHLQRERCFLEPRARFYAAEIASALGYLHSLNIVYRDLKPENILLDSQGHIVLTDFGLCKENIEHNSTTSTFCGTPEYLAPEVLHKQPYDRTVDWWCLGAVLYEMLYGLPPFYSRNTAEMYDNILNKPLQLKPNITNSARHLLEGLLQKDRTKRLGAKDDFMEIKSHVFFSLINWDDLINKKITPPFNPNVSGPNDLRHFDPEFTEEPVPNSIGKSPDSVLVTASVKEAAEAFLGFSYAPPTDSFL
Chain of Serine/threonine-protein kinase SIK1 (Homo sapiens) (P57059 whole entry): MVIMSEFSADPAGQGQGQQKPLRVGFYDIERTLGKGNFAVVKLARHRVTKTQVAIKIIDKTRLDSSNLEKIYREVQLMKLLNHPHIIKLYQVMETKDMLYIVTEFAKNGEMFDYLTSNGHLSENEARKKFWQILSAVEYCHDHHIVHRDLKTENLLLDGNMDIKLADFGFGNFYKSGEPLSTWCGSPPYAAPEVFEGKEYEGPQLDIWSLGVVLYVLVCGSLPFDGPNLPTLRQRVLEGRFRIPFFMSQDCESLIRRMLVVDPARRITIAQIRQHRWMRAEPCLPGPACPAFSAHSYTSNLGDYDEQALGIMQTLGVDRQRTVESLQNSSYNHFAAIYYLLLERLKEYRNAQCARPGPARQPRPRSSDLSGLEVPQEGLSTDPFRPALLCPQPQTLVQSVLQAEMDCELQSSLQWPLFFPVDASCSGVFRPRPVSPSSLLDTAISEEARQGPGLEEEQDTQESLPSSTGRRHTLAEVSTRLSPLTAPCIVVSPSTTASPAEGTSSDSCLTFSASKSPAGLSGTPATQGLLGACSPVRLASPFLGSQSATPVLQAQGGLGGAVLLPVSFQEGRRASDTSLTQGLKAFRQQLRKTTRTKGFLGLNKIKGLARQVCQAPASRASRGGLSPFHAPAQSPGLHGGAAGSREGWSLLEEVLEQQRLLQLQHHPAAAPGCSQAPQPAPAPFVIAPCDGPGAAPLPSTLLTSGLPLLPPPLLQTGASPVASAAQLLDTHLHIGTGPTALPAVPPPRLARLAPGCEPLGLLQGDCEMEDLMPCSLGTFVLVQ
Chain of Mitogen-activated protein kinase 14 (Homo sapiens) (Q16539 whole entry): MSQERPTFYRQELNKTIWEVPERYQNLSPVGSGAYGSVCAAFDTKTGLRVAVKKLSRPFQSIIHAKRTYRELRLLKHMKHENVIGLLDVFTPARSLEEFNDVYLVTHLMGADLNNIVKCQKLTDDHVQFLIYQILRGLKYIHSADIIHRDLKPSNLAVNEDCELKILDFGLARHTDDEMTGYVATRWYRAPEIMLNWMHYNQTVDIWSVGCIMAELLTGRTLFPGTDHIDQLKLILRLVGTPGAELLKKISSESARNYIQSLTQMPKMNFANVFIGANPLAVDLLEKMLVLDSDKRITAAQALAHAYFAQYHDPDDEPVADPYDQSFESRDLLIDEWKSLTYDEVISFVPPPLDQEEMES

## O=C(N1CCS(=O)(=O)CC1)N1C[C@H](c2ccc(OC(F)(F)F)cc2)C[C@H](c2nc(C3CC3)no2)C1 [BAY-386]
[1]
  residual activity: 99%
[2]
  residual activity: 100%
[3]
  residual activity: 100%
[4]
  residual activity: 99%
[5]
  residual activity: 97%
[6]
  residual activity: 100%
[7]
  inhibition: 0.01%
[8]
  % Inhibition of Control Agonist Response (Mean n=2): -1.7%
  % of Control Agonist Response (Mean n=2): 6.3%
[9]
  residual activity: 100%
[10]
  residual activity: 100%
[11]
  residual activity: 100%
[12]
  inhibition: -4.94%
[13]
  inhibition: -2%
[14]
  residual activity: 100%
[15]
  residual activity: 94%
[16]
  residual activity: 91%
[17]
  inhibition: 5.17%
[18]
  residual activity: 100%
[19]
  inhibition: -2%
[20]
  residual activity: 100%
[21]
  residual activity: 100%
[22]
  residual activity: 100%
[23]
  residual activity: 100%
[24]
  residual activity: 73%
[25]
  residual activity: 100%
[26]
  residual activity: 100%
[27]
  residual activity: 100%
[28]
  residual activity: 100%
[29]
  residual activity: 100%
[30]
  residual activity: 100%
[31]
  inhibition: -7.39%
[32]
  residual activity: 100%
[33]
  inhibition: -3%
[34]
  residual activity: 100%
[35]
  residual activity: 100%
[36]
  residual activity: 100%
[37]
  residual activity: 100%

## Cc1noc([C@H]2C[C@@H](c3ccc(C(F)(F)F)cc3)CN(C(=O)N3CCS(=O)(=O)C3)C2)n1 [BAY-448]
[1]
  residual activity: 100%
[2]
  residual activity: 96%
[3]
  residual activity: 100%
[4]
  residual activity: 100%
[5]
  residual activity: 100%
[6]
  residual activity: 100%
[7]
  inhibition: 5.46%
[8]
  % Inhibition of Control Agonist Response (Mean n=2): -13.5%
  % of Control Agonist Response (Mean n=2): 2.5%
[9]
  residual activity: 100%
[10]
  residual activity: 100%
[11]
  residual activity: 96%
[12]
  inhibition: 37.1%
[14]
  residual activity: 100%
[15]
  residual activity: 85%
[16]
  residual activity: 100%
[17]
  inhibition: -9.27%
[18]
  residual activity: 100%
[20]
  residual activity: 79%
[21]
  residual activity: 100%
[22]
  residual activity: 100%
[23]
  residual activity: 100%
[24]
  residual activity: 100%
[25]
  residual activity: 100%
[26]
  residual activity: 100%
[27]
  residual activity: 100%
[28]
  residual activity: 100%
[29]
  residual activity: 86%
[30]
  residual activity: 100%
[31]
  inhibition: 3.61%
[32]
  residual activity: 100%
[34]
  residual activity: 80%
[35]
  residual activity: 79%
[36]
  residual activity: 84%
[37]
  residual activity: 89%
